Experimental data taken from ChEMBL document CHEMBL1201862, “PubChem BioAssay data set” (2004).
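In this assay, cells in 96-well plates receive the compound at five concentrations for 48 hours. Endpoints are linearly interpolated between the surrounding concentrations. GI50 is the concentration that inhibits growth by half.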 The source made the active and inactive calls. No stated cut-off is given here; in the data, active = GI50 up to about 1.1 µM and inactive = higher.

How the values were obtained:
Assay in all cases: NCI tumour cell line growth inhibition, 48 h
[1] = tested on: LOX IMVI
[2] = tested on: SK-MEL-5
[3] = tested on: SK-OV-3
[4] = tested on: CCRF-CEM
[5] = tested on: RXF 393
[6] = tested on: HL-60
[7] = tested on: MDA-MB-231
[8] = tested on: MDA-N
[9] = tested on: OVCAR-4
[10] = tested on: SNB-75
[11] = tested on: SK-MEL-2
[12] = tested on: T47D
[13] = tested on: 786-0
[14] = tested on: HT-29
[15] = tested on: SF-539
[16] = tested on: OVCAR-3
[17] = tested on: RPMI-8226
[18] = tested on: UACC-62
[19] = tested on: CAKI-1
[20] = tested on: ACHN

SMILES | GI50 [1] | GI50 [2] | GI50 [3] | GI50 [4] | GI50 [5] | GI50 [6] | GI50 [7] | GI50 [8] | GI50 [9] | GI50 [10] | GI50 [11] | GI50 [12] | GI50 [13] | GI50 [14] | GI50 [15] | GI50 [16] | GI50 [17] | GI50 [18] | GI50 [19] | GI50 [20]
COC(=O)C1Cc2c([nH]c3ccccc23)C(c2cccc(O)c2)N1 (stereo unspecified) | 50.7 µM (inactive) | 40.9 µM (inactive) | 56.4 µM (inactive) | 19 µM (inactive) | 25.8 µM (inactive) | 22.2 µM (inactive) | 22.3 µM (inactive) | 19.5 µM (inactive) | 41.2 µM (inactive) | 23.6 µM (inactive) | 27 µM (inactive) | 41.5 µM (inactive) | 49.1 µM (inactive) | 27.6 µM (inactive) | 33.4 µM (inactive) | 42 µM (inactive) | 28.4 µM (inactive) | 44.2 µM (inactive) | 57 µM (inactive) | 60 µM (inactive)
Cn1nc(S(N)(=O)=O)s/c1=N/C(N)=S | > 100 µM (inactive) | > 100 µM (inactive) | > 100 µM (inactive) | > 100 µM (inactive) | > 100 µM (inactive) | > 100 µM (inactive) | > 100 µM (inactive) | > 100 µM (inactive) | > 100 µM (inactive) | – | > 100 µM (inactive) | > 100 µM (inactive) | > 100 µM (inactive) | > 100 µM (inactive) | > 100 µM (inactive) | > 100 µM (inactive) | > 100 µM (inactive) | > 100 µM (inactive) | > 100 µM (inactive) | > 100 µM (inactive)
COc1cc2c(cc1C)NC(=O)/C2=C/c1c(Cl)[nH]c2cc(C)c(OC)cc12 | 2.42 µM (inactive) | 2.62 µM (inactive) | 1.3 µM (inactive) | 0.458 µM (active) | 6.81 µM (inactive) | 0.187 µM (active) | 13.2 µM (inactive) | 2.84 µM (inactive) | 5.48 µM (inactive) | 2.34 µM (inactive) | 8.38 µM (inactive) | 2.23 µM (inactive) | 3.23 µM (inactive) | 4.29 µM (inactive) | 0.395 µM (active) | 1.94 µM (inactive) | 3.98 µM (inactive) | 2.07 µM (inactive) | 4.04 µM (inactive) | 2.25 µM (inactive)
COC(=O)C1=C(OC(=O)/C(=C/c2ccccc2)c2ccc(OC)cc2)C(C(=O)OC)[C@@]2(O)[C@@H](C(=O)OC)[C@H](C)C[C@@H]1[C@@H]2C(=O)OC (stereo partly specified) | > 100 µM (inactive) | > 100 µM (inactive) | 80.4 µM (inactive) | > 100 µM (inactive) | 17.8 µM (inactive) | > 100 µM (inactive) | 18.7 µM (inactive) | > 100 µM (inactive) | > 100 µM (inactive) | 24.2 µM (inactive) | > 100 µM (inactive) | > 100 µM (inactive) | 26.1 µM (inactive) | > 100 µM (inactive) | > 100 µM (inactive) | > 100 µM (inactive) | > 100 µM (inactive) | > 100 µM (inactive) | > 100 µM (inactive) | > 100 µM (inactive)
O=C1c2ccccc2CN1c1ccc(O)cc1 | > 100 µM (inactive) | > 100 µM (inactive) | > 100 µM (inactive) | > 100 µM (inactive) | > 100 µM (inactive) | > 100 µM (inactive) | > 100 µM (inactive) | > 100 µM (inactive) | > 100 µM (inactive) | – | > 100 µM (inactive) | > 100 µM (inactive) | > 100 µM (inactive) | > 100 µM (inactive) | > 100 µM (inactive) | > 100 µM (inactive) | > 100 µM (inactive) | > 100 µM (inactive) | > 100 µM (inactive) | > 100 µM (inactive)
O=C(N/N=C(COc1cccc(Cl)c1)\N=C\c1cccnc1)c1ccncc1 | > 100 µM (inactive) | – | > 100 µM (inactive) | > 100 µM (inactive) | 35.3 µM (inactive) | > 100 µM (inactive) | > 100 µM (inactive) | > 100 µM (inactive) | 84.7 µM (inactive) | 18.5 µM (inactive) | > 100 µM (inactive) | 32.5 µM (inactive) | > 100 µM (inactive) | > 100 µM (inactive) | > 100 µM (inactive) | > 100 µM (inactive) | > 100 µM (inactive) | > 100 µM (inactive) | 73.5 µM (inactive) | 91.2 µM (inactive)
COc1ccc2[nH]c3c(C)c4cnccc4c(C)c3c2c1 | – | > 10 µM (inactive) | > 10 µM (inactive) | 2.07 µM (inactive) | 2.49 µM (inactive) | 2.28 µM (inactive) | 2.8 µM (inactive) | 1.85 µM (inactive) | 1.94 µM (inactive) | 2.25 µM (inactive) | 5.14 µM (inactive) | > 10 µM (inactive) | 0.424 µM (active) | 1.11 µM (active) | 1.88 µM (inactive) | 1.14 µM (inactive) | 2.95 µM (inactive) | > 10 µM (inactive) | 6.27 µM (inactive) | 2.01 µM (inactive)
